Data taken from patent publication US20060074109A1, “Use of inhibitors of 24-hydroxylase in the treatment of cancer” (Sapphire Therapeutics, Inc., priority 2004, published 2006).

How the values were obtained:
Format in all cases: cell-based, human
[1] = system: 24OHase mRNA in UT-OC-5 cells; assay: RPA and RT-PCR of 24OHase induction; conditions: 24 h
Text: (§1) Briefly, ^32P-labelled ([α-^32P]UTP, Amersham Biosciences, Buckinghamshire, UK) RNA-probes were synthesised using in vitro transcription reaction (In vitro transcription reaction kit, Pharmingen, San Diego, Calif.) using two different template sets.
(§2) RPLP0 was used as reference gene.

[2] = system: 24OHase mRNA in ovarian cancer cell lines; assay: RPA and RT-PCR of 24OHase induction, all cell lines; conditions: 100 nM, 24 h, every cell line
Text: as §1, §2

UT-OC-4 cells = assay: Cell growth assay, crystal violet, 11 days; conditions: 100 nM alone, 11 days
Method: (§3) The human ovarian adenocarcinoma cell line, OVCAR-3 (ATCC, Manassas, Va.) was maintained, as recommended by the supplier, in RPMI 1640 medium (Sigma Aldrich, St. Louis, Mo.) supplemented with 10% FBS, 10 μg/ml insulin, 0.25% glucose and antibiotics (100 IU/ml penicillin, 100 μg/ml streptomycin). Human ovarian adenocarcinoma cell lines UT-OC-1, UT-OC-2, UT-OC-3, UT-OC-4, UT-OC-5 (Grenman, S., Engblom, P., Rantanen, V., Klemi, P. and Isola, J., “Cytogenetic Characterization of Five New Ovarian Carcinoma Cell Lines,” Acta Obstet. Gynecol. Scand., 76:83 (1997)) and SK-OV-3 and a human keratinocyte cell line HaCaT were grown in DMEM (Sigma Aldrich) with 10% FBS and antibiotics (100 IU/ml penicillin, 100 μg/ml streptomycin), and monkey kidney COS cells were maintained in DMEM/F12 (Sigma Aldrich) with 5% FBS. All cell lines were kept at 37° C. in a humidified 95% air/5% CO2 incubator.
(§4) When OVCAR-3 cells were on the logarithmic growth phase (70% confluent) the growth assay was started. For cell growth assay, 2,000 cell/200 μl/well were plated on 96-well culture plates. […] Ethanol was used as a vehicle, and it was also included in the control. The medium containing ethanol vehicle and/or hormones were changed to a fresh one every third day. Cell growth samples were taken 0, 1, 3, 5, 7, 9 and 11 days after the treatment.
(§5) Relative cell numbers were quantified as described previously (Kueng W, Silber E, Eppenberger U. Quantification of cells cultured on 96-well plates. Anal. Biochem., 182:16-9 (1989)). Cells were fixed on the bottom of the wells by addition of 10 μl of 11% glutaraldehyde solution in 0.1% phosphate buffer to 100 μl of medium. The plate was shaken 500 cycles/min for 15 min, washed 3 times by submersion in de-ionised water and air-dried. Fixed cells were stained with 0.1% solution of crystal violet dissolved in de-ionised water. After 20 min incubation, excess dye was removed by carefully washing with de-ionised water. The plate was air-dried prior to a bound dye solubilisation in 100 μl of 10% acetic acid. Relative cell number was given as absorbance units by measuring the optical density (590 nm) from each well using Victor 1420 multilabel counter (Wallac, Turku, Finland). Six determinations were used to calculate the mean optical density ±SD in each concentration at each time point. The absorbance value of day 0 (an overnight culture of 2,000 cells/well) was set as 0 by subtracting it from each value obtained from adjacent time-point measurements (days 1-11), and based on these values growth curves were created. Experiments were repeated 3-5 times. Day 11 was used to compare the effect of hormone treatments and 24OHase inhibitor. Statistical analyses were done using Student's t-test.
(§6) Cell growth samples were obtained after 11 days treatment.

UT-OC-1 cells = assay: Cell growth assay, crystal violet, 11 days; conditions: 100 nM alone, 11 days
Method: as §3, §4, §5, §6

[3] = system: RARα mRNA in SK-OV-3 cells; assay: RPA and quantitative RT-PCR of receptor mRNA; conditions: 100 nM, 24 hour
Text: as §1, §2

[4] = system: RARγ mRNA in UT-OC-1 cells; assay: RPA and quantitative RT-PCR of receptor mRNA; conditions: 100 nM, 24 hour
Text: as §1, §2

[5] = system: VDR mRNA in UT-OC-1 cells; assay: RPA and quantitative RT-PCR of receptor mRNA; conditions: 100 nM, 24 hour
Text: as §1, §2

[6] = system: RARγ mRNA in SK-OV-3 cells; assay: RPA and quantitative RT-PCR of receptor mRNA; conditions: 100 nM, 24 hour
Text: as §1, §2

[7] = system: 24OHase mRNA in OVCAR-3 cells; assay: Quantitative RT-PCR of 24OHase mRNA; conditions: 100 nM
Method: Ethanol was used as a vehicle, and it was also added to the control cells. For RNA extraction, the cells were collected 4, 6 and 24 hr after the treatment with vitamin D compound or vehicle. RNA extractions were done with TRIZOL reagent (GIBCO Invitrogen Corporation, Paisley, UK). The integrity of RNA samples was confirmed on gel electrophoresis. […] The reactions for 24-hydroxylase were performed in the LightCycler instrument (Roche Diagnostics, Basel, Switzerland) from 300 ng total RNA. PBGD (human porphobilinogendeaminase) mRNA was used as an […] control. […] Nucleotides, Tth DNA polymerase (DNA polymerase and reverse transcriptase activity), SYBR Green I and reaction buffer were included in the LightCycler-RNA Master SYBR Green I kit (Roche Diagnostics). […] Cell. […] Detection of fluorescent product was performed at the end of the extension step of each cycle. To verify the specific products, melting curve analysis and gel electrophoresis were done. The data were quantified by the Fit Points method with LightCycler Data Analysis software. […] Hormone treatments and RT-PCR were done twice.

OVCAR-3 cells = assay: Cell growth assay, crystal violet, 11 days; conditions: 11 days
Method: as §3, §4, §5
The cell growth response was determined as described in Experiment I. Briefly, cells were treated with indicated hormone concentrations or combinations of hormone and 24OHase inhibitor (VID400) for 11 days. The growth medium and hormones were changed to a fresh one every third day. After the treatment period, cells were fixed, stained with crystal violet, and the optical density (590 nm) was determined. The cell growth is presented as a percentage of ethanol-treated cells. The values represent the mean of 3 separate experiments ±SD. (*p<0.05, **p<0.001, ***p<0.0001, Student's t-test).
as §6

## C=C1/C(=C\C=C2/CCC[C@]3(C)[C@@H]([C@H](C)/C=C/C=C/C(O)(CC)CC)CC[C@@H]23)C[C@@H](O)C[C@@H]1O [EB 1089]
[1]
  24OHase induction relative to 100 nM 1,25(OH)2D3: more than two-fold stronger inducer
[2]
  induction of 24OHase expression compared with 1,25(OH)2D3: more effective in inducing 24OHase expression
UT-OC-4 cells
  effect on cell growth: did not restrain cell growth
UT-OC-1 cells
  effect on cell growth: did not inhibit the cell growth
[3]
  RARα expression: 134±10 % of control
[4]
  up regulation of RARγ compared to control: 47±7%
[5]
  VDR expression: 47±8 % of control
[6]
  increase of RARγ compared to control: 51±7%
[7]; 6 hr treatment
  induction of 24OHase mRNA expression: 600 fold
[7]; 24 hr treatment
  induction of 24OHase mRNA expression: 1,000 fold
OVCAR-3 cells; Homo sapiens, OVCAR-3, 264 h, 1 nM, read-out: inhibited growth compared to the control
  inhibition at 0.001 µM: 73%
OVCAR-3 cells; Homo sapiens, OVCAR-3, 264 h, 100 nM, read-out: inhibited growth compared to the control
  inhibition at 0.1 µM: 84%
OVCAR-3 cells; alone (10 or 100 nM), Experiment V
  effect on cell proliferation: markedly inhibited the proliferation
